Results as given in patent publication US20100196194A1, “METHOD FOR S[…] WITH OZONE” (BRADFORD I[…], priority 2006, published 2010).

Key:
[1] = system: spores of the bacterium Bacillus Atrophaeus; experiment: sterilization of standard spore strips (10E6), growth check after 48 hours at 37° C. in tryptone soya broth; assay type: cell-based
From the text: The FIGS. 3A-3B illustrate another experiment, executed on spores of the bacterium Bacillus Atrophaeus (previously known as Bacillus subtilis var. niger); from all bacterial spores, the spores of this bacterium Bacillus Astrophaeus are the most resistant to ozone. Use was made of standard spore strips with the qualification 10E6; these are strips on which in the order of 10^6 bacterial spores have been deposited. The used strips were obtained from the company Etigam BV in Apeldoorn, Netherlands. According to statement of the supplier, these spores were obtained from the American Type Culture Collection (ATCC) 9372.
In this experiment, the spore strips were submitted to a sterilization process, wherein the ozone concentration, the degree of humidity and the treatment time were measured. The spore strips were removed from the sterilization chamber, and than were stored for 48 hours at a temperature of 37° C. in a test tube filled with tryptone soya broth (“tryptone Soya Broth”, TSB). TSB is a standard nutrition medium, obtainable at Tritium-Microbiologie BV in Veldhoven, Netherlands, type indication T406.24.0005.
Each time, four spore strips were treated simultaneously. After the storage time of 48 hours, for each spore strip it was investigated whether bacterial spores had grown. If visually no bacterial growth could be detected, it was assumed that all spores of the relevant spore strip had been killed. If visually bacterial growth could be detected, the relevant spore strip was qualified as “insufficiently sterilized”. The results are presented in the FIGS. 3A and 3B, wherein FIG. 3A relates to measurements at an ambient temperature of 20° C. during the sterilization process and FIG. 3B relates to measurements at an ambient temperature of 30° C. during the sterilization process. The horizontal axis in the figures represents the measured degree of humidity in percentages, the vertical axis represents the time integral of the ozone concentration, indicated as ∫[O3], in units of gr·s/l. In the area 131, 100% of the bacterial spores of all four the test strips were always killed. In the area 132, each time one spore strip was insufficiently sterilized. In the area 133, each time two spore strips were insufficiently sterilized. In the area 134, each time three or four spore strips were insufficiently sterilized. The rectangular areas that are cut away from the top left of the graphs are areas belonging to test strips that were not analyzed.

bacterial spores = experiment: relation between ozone concentration and time needed for sterilization of bacterial spore samples; assay type: cell-based; conditions: ozone concentration 2-3 mgr/l (based on 1 atm), moisture content 60-80%
Procedure: Experimentally, the relation has been investigated between ozone concentration and the time needed for sterilization. A typical measurement procedure is as follows. A sample with bacterial spores is prepared, and exposed in the chamber 10 to an ozone-containing atmosphere with a specific temperature and air humidity, during a specific treatment time, after which the sample is removed from the chamber 10. […] Thus, a series of samples is treated, each time with different treatment times. To obtain a greater certainty, the measurements are repeated, which means that at a certain treatment time always multiple measurements are done with different samples.
The treated samples are subsequently placed in a conditioned breeding chamber, and it is monitored at which samples bacterial growth is and at which samples bacterial is not taking place. […]
The results obtained from the culture were correlated to the treatment times. For each value of the ozone concentration, it was assessed what the LONGEST treatment time was where bacterial growth was still observed: this treatment time was apparently insufficient to guarantee 100% elimination of the spores; this measurement point and all measurement points with shorter treatment times, in FIG. 2, are indicated with open circles. […]

## O=[O+][O-] [ozone]
[1]; FIG. 3A, ambient temperature 20° C.
  degree of humidity giving optimal sterilization result: approximately 80 % RH
[1]; ambient temperature increased to 30° C. (versus 20° C.)
  effect of increasing the ambient temperature on sterilization: favourable effect
[1]; degree of humidity increased to 95%
  effect of increasing the degree of humidity on sterilization: did not give clear improvement
[1]; less than 50% RH
  sterilization at low degree of humidity: no good sterilization proved to be possible
[1]; worst case 60% RH and 20° C., valid at all humidity above 60% RH, at 20° C. and 30° C.
  ozone performance equivalent OPEQ (minimum time integral of ozone concentration leading to 100% sterilization): 15 gr·s/l
Bacterial spores
  sterilization result in experimental set-up: good results
